Laboratory results reported in ChEMBL document CHEMBL2440005, “Discovery and structure-activity relationships of 6-(benzoylamino)benzoxaboroles as orally active anti-inflammatory agents” (Bioorg Med Chem Lett, 2013).
Active and inactive are the calls of the source. The calls are words filed in the database; no cut-off is given here.

Experiments:
PBMC [1] = assay: Antiinflammatory activity in human PBMC assessed as inhibition of LPS-induced TNFalpha release incubated for 15 mins prior to LPS-challenge measured after 24 hrs by HTRF assay; format: functional, cell-based
PBMC [2] = assay: Antiinflammatory activity in human PBMC assessed as inhibition of LPS-induced IL-1beta release incubated for 15 mins prior to LPS-challenge measured after 24 hrs by HTRF assay; format: functional, cell-based
PBMC [3] = assay: Antiinflammatory activity in human PBMC assessed as inhibition of LPS-induced IL-6 release incubated for 15 mins prior to LPS-challenge measured after 24 hrs by HTRF assay; format: functional, cell-based
Mus musculus [4] = assay: Toxicity in mouse assessed as change in body weight at 3 mg/kg, po qd after 20 days relative to untreated control; format: organism-based; design: dose 3 mg/kg, route oral; details: in vivo, 480 h
Mus musculus [5] = assay: Antiinflammatory activity in collagen-induced arthritis mouse model at 3 mg/kg, po qd after 20 days; format: functional, organism-based; design: dose 3 mg/kg

Structure (SMILES)	IC50 (PBMC [1]) [µM]	IC50 (PBMC [2]) [µM]	IC50 (PBMC [3]) [µM]	Activity (Mus musculus [4])	inhibition (Mus musculus [5])
O=C(Nc1ccc2c(c1)B(O)OC2)c1cc(C(F)(F)F)ccc1C(F)(F)F	6.3	2	3	–	–
O=C(Nc1ccc2c(c1)B(O)OC2)c1cc(F)ccc1C(F)(F)F	28	11	8.2	–	–
O=C(Nc1ccc2c(c1)B(O)OC2)c1c(F)cccc1Cl	15	3.1	4.9	–	–
O=C(Nc1ccc2c(c1)B(O)OC2)c1ccccc1C(F)(F)F	7.2	2.1	4.4	–	–
O=C(Nc1ccc2c(c1)B(O)OC2)c1cccc(C(F)(F)F)c1F	99	> 100	> 100	–	–
O=C(Nc1ccc2c(c1)B(O)OC2)c1cc(C(F)(F)F)ccc1F	> 100	> 100	> 100	–	–
O=C(Nc1ccc2c(c1)B(O)OC2)Nc1ccccc1C(F)(F)F	> 10	> 10	> 10	–	–
O=C(Nc1ccc2c(c1)B(O)OC2)c1ccccc1OC(F)(F)F	> 100	> 100	> 100	–	–
O=C(Nc1ccc2c(c1)B(O)OC2)c1c(F)cccc1C(F)(F)F	1.2	0.18	0.37	–	–
COc1ccccc1C(=O)Nc1ccc2c(c1)B(O)OC2	36	> 100	> 100	–	–
OB1OCc2ccc(NCc3ccccc3C(F)(F)F)cc21	> 10	> 10	> 10	–	–
C[C@]12C=CC(=O)C=C1CC[C@@H]1[C@@H]2[C@@H](O)C[C@@]2(C)[C@H]1CC[C@]2(O)C(=O)CO [PREDNISOLONE]	–	–	–	Non-toxic	Active
O=C(Nc1ccc2c(c1)B(O)OC2)c1ccccc1Cl	> 100	> 100	> 100	–	–
Cc1ccccc1C(=O)Nc1ccc2c(c1)B(O)OC2	> 100	> 100	> 100	–	–
O=C(Nc1ccc2c(c1)B(O)OC2)c1ccc(F)cc1C(F)(F)F	13	3.2	5.6	–	–
O=C(Nc1ccc2c(c1)B(O)OC2)c1ccccc1F	> 100	> 10	> 10	–	–
O=C(Nc1ccc2c(c1)B(O)OC2)c1ccc(C(F)(F)F)cc1C(F)(F)F	10	5.3	8.3	–	–
O=C(Nc1ccc2c(c1)B(O)OC2)c1cccc(Cl)c1F	> 100	> 100	> 100	–	–
O=S(=O)(Nc1ccc2c(c1)B(O)OC2)c1ccccc1C(F)(F)F	> 10	> 10	> 10	–	–
O=C(Nc1ccc2c(c1)B(O)OC2)c1ccc(C(F)(F)F)cc1F	> 100	> 100	> 100	–	–
O=C(Nc1ccc2c(c1)B(O)OC2)c1ccccc1-c1ccccc1	> 100	> 100	> 100	–	–
O=C(Nc1ccc2c(c1)B(O)OC2)c1ccccc1	> 100	> 100	> 100	–	–
O=C(Nc1ccc2c(c1)B(O)OC2)c1cccc(C(F)(F)F)c1	> 10	> 10	> 10	–	–
O=C(Nc1ccc2c(c1)B(O)OC2)c1ccc(C(F)(F)F)cc1	> 100	> 100	> 100	–	–
